# Tests used:
# [1] = test system: Envelope (E) gene of SARS-CoV-2; assay: Quantitative determination of viral gene expression (real-time PCR of E gene); assay type: cell-based, severe acute respiratory syndrome coronavirus 2; conditions: Vero E6 cells pretreated at 15.625 nM and 62.5 nM (experimental groups 2 to 3), m.o.i. 0.01, versus pathological control group
# HcoV-229E = assay: MTT cell viability assay of HcoV-229E-infected Vero E6 cells; assay type: cell-based, human coronavirus 229E
# Procedure: Vero E6 cells were divided into 5 groups, including one normal control group, one pathological control group, and three experimental groups (i.e., experimental groups 1 to 3). Each group of the Vero E6 cells was incubated in a respective well of a 96-well culture plate containing 100 μL of E2 medium at 2×10^4 cells/well, followed by cultivation in an incubator (37° C., 5% CO2) for 24 hours. Afterwards, the culture medium in each well was removed, and the cells of the experimental groups 1 to 3 were pretreated with 8-benzoyl-4-methyl-9-phenyl-furo[2,3-h]chromen-2-one (i.e., HP520-2) (Cat. No. STL-513320, Vitas-M Laboratory) respectively at concentrations of 20 nM, 40 nM, and 80 nM, followed by adding 150 μL of the HcoV-229E solution prepared in section 2 of General Experimental Materials. […]
# Each group was cultivated in an incubator (37° C., 5% CO2) for 96 hours. […] After cultivation in an incubator (37° C., 5% CO2) for 2 hours, the respective resultant cell culture was added with 150 μL of dimethyl sulfoxide (DMSO), followed by subjecting the mixture thus obtained to determination of absorbance at a wavelength of 590 nm (OD590) by an ELISA reader.
# The cell viability rate (%) was calculated using the following Equation (I): […]
# SARS-CoV-2 = assay: Viral plaque reduction assay; assay type: cell-based; conditions: SARS-CoV-2-infected Vero E6 cells, m.o.i. 0.01, HP520-2, 72 hours, versus pathological control group
compound,measurement,setting,value
"Cc1cc(=O)oc2c1ccc1oc(C(=O)c3ccccc3)c(-c3ccccc3)c12 [HP520-2, 8-benzoyl-4-methyl-9-phenyl-furo[2,3-h]chromen-2-one]",relative RNA expression level of E gene of SARS-CoV-2,[1],significantly lower than that of the pathological control group
same,EC50,"HcoV-229E; Human coronavirus 229E, Vero C1008, Vero E6 cells, HcoV-229E, 96 hours, MTT, n=3, mean±SD",0.039 ± 0.015 µM
same,cell viability rate,"HcoV-229E; Vero E6 cells pretreated at 20 nM, 40 nM, 80 nM, versus pathological control group, FIG. 1",significantly higher than that determined in the pathological control group
same,number of viral plaques,SARS-CoV-2,lower than that determined in the pathological control group

# Reference: patent US20220087974A1, “METHOD AGAINST CORONAVIRUS INFECTION WITH COUMARIN-DERIVED COMPOUND” (CHANG GUNG UNIVERSITY, priority 2020, published 2022)
